Test results from patent US20260022142A1, “MACROCYCLIC IMMUNOMODULATORS” (Bristol-Myers Squibb Company, priority 2022, published 2026).
Bridge positions count the residues as written; N and C are the ends. Square brackets hold non-standard residues; d marks the D form. Peptide text beside a SMILES is read from it. * marks the point of attachment. ξ: configuration not given here. Phe(4-COOH) = N[C@@H](Cc1ccc(C(=O)O)cc1)C(=O)O; Bip = N[C@@H](Cc1ccc(-c2ccccc2)cc1)C(=O)O; Nle(6-COOH) = N[C@@H](CCCCC(=O)O)C(=O)O; Phe(3-Me) = Cc1cccc(C[C@H](N)C(=O)O)c1; Cha = N[C@@H](CC1CCCCC1)C(=O)O; Cit = NC(=O)NCCC[C@H](N)C(=O)O; Thr(3ξ) = CC(O)[C@H](N)C(=O)O; Carboxymethyl = O=C(O)C*; Orn = NCCC[C@H](N)C(=O)O; Aun = NCCCCCCCCCCC(=O)O; Dab = NCC[C@H](N)C(=O)O

The compounds below were run against T1, PD-1/PD-L1 interaction (PE-labeled human PD-L1-Ig binding to Jurkat cell line over-expressing human PD-1) (Homo sapiens, UniProt Q15116) (assay: Jurkat-PD-1 Cell Binding High-Content Screening Assay (CBA)). Details: Jurkat cell line over-expressing human PD-1; PE-labeled PD-L1-Ig 20 nM final; read-out: Jurkat hPD1-PDL1 IC50.
T1 construct: expressed in transfected cells; host or cells: Jurkat
Format: cell-based
Procedure, shortened: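 First, compound is added to PD-1-expressing Jurkat cells in serum-containing DMEM and left 2 h at 37° C. Next, PE-conjugated PD-L1-Ig is introduced at 20 nM final concentration for 1 hour. Finally, cells are fixed in 4% paraformaldehyde with Hoechst 33342, washed and imaged.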

T1 sequence (Q15116 25-288): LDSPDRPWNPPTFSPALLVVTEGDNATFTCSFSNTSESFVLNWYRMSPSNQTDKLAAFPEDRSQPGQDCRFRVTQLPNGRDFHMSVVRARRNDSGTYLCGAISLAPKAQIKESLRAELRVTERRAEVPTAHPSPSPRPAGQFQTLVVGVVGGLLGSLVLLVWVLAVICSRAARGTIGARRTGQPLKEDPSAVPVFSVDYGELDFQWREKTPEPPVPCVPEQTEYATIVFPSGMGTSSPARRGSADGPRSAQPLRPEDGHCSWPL

Going from `Cc1cccc(C[C@@H]2NC(=O)[C@H](CC(=O)O)NC(=O)[C@H](Cc3ccc(OCC(=O)O)cc3)NC(=O)[C@H](CC(N)=O)NC(=O)CSC[C@@H](C(=O)N[C@@H](CCN)C(=O)NCCCCCCCCCCC(=O)O)NC(=O)[C@H](CCCNC(N)=O)NC(=O)[C@H](C(C)C)NC(=O)[C@H](CC3CCCCC3)NC(=O)[C@H](CCN)NC(=O)[C@@H](CC(C)C)NC(=O)[C@H](CCCN)NC(=O)[C@H](Cc3ccc(O)cc3)NC(=O)[C@H](Cc3ccc(-c4ccccc4)cc3)NC(=O)[C@H](C(C)C)NC2=O)c1` [Compound 3378] ({CH2CO}-NY(Carboxymethyl)D[Phe(3-Me)]V[Bip]Y[Orn][dL][Dab][Cha]V[Cit]C[Dab][Aun]-OH; thioether N-14) to `Cc1cccc(C[C@@H]2NC(=O)[C@H](CC(=O)O)NC(=O)[C@H](Cc3ccc(OCC(=O)O)cc3)NC(=O)[C@H](CC(N)=O)NC(=O)CSC[C@@H](C(=O)N[C@@H](CCN)C(=O)NCCCCCCCCCCC(=O)O)NC(=O)[C@H](CCC(=O)O)NC(=O)[C@H](C(C)C)NC(=O)[C@H](CC3CCCCC3)NC(=O)[C@H](CCN)NC(=O)[C@@H](CC(C)C)NC(=O)[C@H](CCCN)NC(=O)[C@H](Cc3ccc(O)cc3)NC(=O)[C@H](Cc3ccc(-c4ccccc4)cc3)NC(=O)[C@H](C(C)C)NC2=O)c1` [Compound 3379] ({CH2CO}-NY(Carboxymethyl)D[Phe(3-Me)]V[Bip]Y[Orn][dL][Dab][Cha]VEC[Dab][Aun]-OH; thioether N-14), the IC50 falls from 18.1 nM to 9.5 nM (1.9-fold). The second is the more potent here.

Going from `Cc1cccc(C[C@@H]2NC(=O)[C@H](CC(=O)O)NC(=O)[C@H](Cc3ccc(OCC(=O)O)cc3)NC(=O)[C@H](CCCNC(=N)N)NC(=O)CSC[C@@H](C(=O)N[C@@H](CCN)C(=O)NCCCCCCCCCCC(=O)O)NC(=O)[C@H](CCC(N)=O)NC(=O)[C@H](C(C)C)NC(=O)[C@H](CC3CCCCC3)NC(=O)[C@H](CCN)NC(=O)[C@@H](CC(C)C)NC(=O)[C@H](CCCN)NC(=O)[C@H](Cc3ccc(O)cc3)NC(=O)[C@H](Cc3ccc(-c4ccccc4)cc3)NC(=O)[C@H](CC(C)C)NC2=O)c1` [Compound 3380] ({CH2CO}-RY(Carboxymethyl)D[Phe(3-Me)]L[Bip]Y[Orn][dL][Dab][Cha]VQC[Dab][Aun]-OH; thioether N-14) to `Cc1cccc(C[C@@H]2NC(=O)[C@H](CC(=O)O)NC(=O)[C@H](Cc3ccc(OCC(=O)O)cc3)NC(=O)[C@H](CCCNC(=N)N)NC(=O)CSC[C@@H](C(=O)N[C@@H](CCN)C(=O)NCCCCCCCCCCC(=O)O)NC(=O)[C@H](CCC(N)=O)NC(=O)[C@H](C(C)C)NC(=O)[C@H](CC3CCCCC3)NC(=O)[C@H](CCN)NC(=O)[C@@H](CC(C)C)NC(=O)[C@H](CCCN)NC(=O)[C@H](Cc3ccc(O)cc3)NC(=O)[C@H](Cc3ccc(-c4ccccc4)cc3)NC(=O)[C@H](Cc3ccc(O)cc3)NC2=O)c1` [Compound 3382] ({CH2CO}-RY(Carboxymethyl)D[Phe(3-Me)]Y[Bip]Y[Orn][dL][Dab][Cha]VQC[Dab][Aun]-OH; thioether N-14), the IC50 falls from 20.6 nM to 10.8 nM (1.9-fold). The second is the more potent here.

First: Cc1cccc(C[C@@H]2NC(=O)[C@H](CC(=O)O)NC(=O)[C@H](Cc3ccc(OCC(=O)O)cc3)NC(=O)[C@H](CCCNC(=N)N)NC(=O)CSC[C@@H](C(=O)N[C@@H](CCN)C(=O)NCCCCCCCCCCC(=O)O)NC(=O)[C@H](CCC(=O)O)NC(=O)[C@H](C(C)C)NC(=O)[C@H](CC3CCCCC3)NC(=O)[C@H](CCN)NC(=O)[C@@H](CC(C)C)NC(=O)[C@H](CCCN)NC(=O)[C@H](Cc3ccc(O)cc3)NC(=O)[C@H](Cc3ccc(-c4ccccc4)cc3)NC(=O)[C@H](Cc3ccc(O)cc3)NC2=O)c1 [Compound 3381] ({CH2CO}-RY(Carboxymethyl)D[Phe(3-Me)]Y[Bip]Y[Orn][dL][Dab][Cha]VEC[Dab][Aun]-OH; thioether N-14)
Second: CC(=O)NCCCC[C@@H]1NC(=O)[C@H](Cc2ccc(-c3ccccc3)cc2)NC(=O)[C@H](Cc2ccc(O)cc2)NC(=O)[C@H](Cc2cccc(C)c2)NC(=O)[C@H](CC(=O)O)NC(=O)[C@H](Cc2ccc(OCC(=O)O)cc2)NC(=O)[C@H](CCCNC(=N)N)NC(=O)CSC[C@@H](C(=O)N[C@@H](CCN)C(=O)NCCCCCCCCCCC(=O)O)NC(=O)[C@H](CCCNC(N)=O)NC(=O)[C@H](C(C)C)NC(=O)[C@H](CC2CCCCC2)NC(=O)[C@H](CCN)NC(=O)[C@@H](CC(C)C)NC(=O)[C@H](CCCN)NC1=O [Compound 3386] ({CH2CO}-RY(Carboxymethyl)D[Phe(3-Me)]Y[Bip]K(Ac)[Orn][dL][Dab][Cha]V[Cit]C[Dab][Aun]-OH; thioether N-14)
The IC50 of the first is 2-fold higher: 8.9 nM for the first, 4.4 nM for the second.

Compared with `Cc1cccc(C[C@@H]2NC(=O)[C@H](CC(=O)O)NC(=O)[C@H](Cc3ccc(OCC(=O)O)cc3)NC(=O)[C@H](CCCNC(=N)N)NC(=O)CSC[C@@H](C(=O)N[C@@H](CCN)C(=O)NCCCCCCCCCCC(=O)O)NC(=O)[C@H](CCCNC(N)=O)NC(=O)[C@H](C(C)C)NC(=O)[C@H](CC3CCCCC3)NC(=O)[C@H](CCN)NC(=O)[C@@H](CC(C)C)NC(=O)[C@H](CCCN)NC(=O)[C@H](Cc3ccc(OCC(=O)O)cc3)NC(=O)[C@H](Cc3ccc(-c4ccccc4)cc3)NC(=O)[C@H](C(C)C)NC2=O)c1` [Compound 3383] ({CH2CO}-RY(Carboxymethyl)D[Phe(3-Me)]V[Bip]Y(Carboxymethyl)[Orn][dL][Dab][Cha]V[Cit]C[Dab][Aun]-OH; thioether N-14), `Cc1cccc(C[C@@H]2NC(=O)[C@H](CC(=O)O)NC(=O)[C@H](Cc3ccc(OCC(=O)O)cc3)NC(=O)[C@H](CCCNC(=N)N)NC(=O)CSC[C@@H](C(=O)N[C@@H](CCN)C(=O)NCCCCCCCCCCC(=O)O)NC(=O)[C@H](C(C)O)NC(=O)[C@H](C(C)C)NC(=O)[C@H](CC3CCCCC3)NC(=O)[C@H](CCN)NC(=O)[C@@H](CC(C)C)NC(=O)[C@H](CCCN)NC(=O)[C@H](Cc3ccc(OCC(=O)O)cc3)NC(=O)[C@H](Cc3ccc(-c4ccccc4)cc3)NC(=O)[C@H](CC(C)C)NC2=O)c1` (stereo partly drawn) [Compound 3387] ({CH2CO}-RY(Carboxymethyl)D[Phe(3-Me)]L[Bip]Y(Carboxymethyl)[Orn][dL][Dab][Cha]V[Thr(3ξ)]C[Dab][Aun]-OH; thioether N-14) is 2.5-fold higher in IC50: 8.2 nM for the first, 20.5 nM for the second. The first is the more potent here.

Going from `Cc1cccc(C[C@@H]2NC(=O)[C@H](CC(=O)O)NC(=O)[C@H](Cc3ccc(OCC(=O)O)cc3)NC(=O)[C@H](CCCNC(=N)N)NC(=O)CSC[C@@H](C(=O)N[C@@H](CCN)C(=O)NCCCCCCCCCCC(=O)O)NC(=O)[C@H](CCC(=O)O)NC(=O)[C@H](C(C)C)NC(=O)[C@H](CC3CCCCC3)NC(=O)[C@H](CCN)NC(=O)[C@@H](CC(C)C)NC(=O)[C@H](CCCN)NC(=O)[C@H](CCC(N)=O)NC(=O)[C@H](Cc3ccc(-c4ccccc4)cc3)NC(=O)[C@H](C(C)C)NC2=O)c1` [Compound 3384] ({CH2CO}-RY(Carboxymethyl)D[Phe(3-Me)]V[Bip]Q[Orn][dL][Dab][Cha]VEC[Dab][Aun]-OH; thioether N-14) to `CSCC[C@@H]1NC(=O)[C@H](Cc2ccc(-c3ccccc3)cc2)NC(=O)[C@H](C(C)C)NC(=O)[C@H](Cc2cccc(C)c2)NC(=O)[C@H](CC(=O)O)NC(=O)[C@H](Cc2ccc(OCC(=O)O)cc2)NC(=O)[C@H](CCCNC(=N)N)NC(=O)CSC[C@@H](C(=O)N[C@@H](CCN)C(=O)NCCCCCCCCCCC(=O)O)NC(=O)[C@H](CCC(N)=O)NC(=O)[C@H](C(C)C)NC(=O)[C@H](CC2CCCCC2)NC(=O)[C@H](CCN)NC(=O)[C@@H](CC(C)C)NC(=O)[C@H](CCCN)NC1=O` [Compound 3385] ({CH2CO}-RY(Carboxymethyl)D[Phe(3-Me)]V[Bip]M[Orn][dL][Dab][Cha]VQC[Dab][Aun]-OH; thioether N-14), the IC50 rises from 9.2 nM to 16.5 nM (1.8-fold). The first is the more potent here.

`Cc1cccc(C[C@@H]2NC(=O)[C@H](CC(=O)O)NC(=O)[C@H](Cc3ccc(OCC(=O)O)cc3)NC(=O)[C@H](CCCNC(=N)N)NC(=O)CSC[C@@H](C(=O)N[C@@H](CCN)C(=O)NCCCCCCCCCCC(=O)O)NC(=O)[C@H](CCCNC(N)=O)NC(=O)[C@H](C(C)C)NC(=O)[C@H](CC3CCCCC3)NC(=O)[C@H](CCN)NC(=O)[C@@H](CC(C)C)NC(=O)[C@H](CCCN)NC(=O)[C@H](CCCCC(=O)O)NC(=O)[C@H](Cc3ccc(-c4ccccc4)cc3)NC(=O)[C@H](C(C)C)NC2=O)c1` [Compound 3390] ({CH2CO}-RY(Carboxymethyl)D[Phe(3-Me)]V[Bip][Nle(6-COOH)][Orn][dL][Dab][Cha]V[Cit]C[Dab][Aun]-OH; thioether N-14) and `CC(=O)NCCCC[C@@H]1NC(=O)[C@H](C(C)C)NC(=O)[C@H](CC2CCCCC2)NC(=O)[C@H](CCN)NC(=O)[C@@H](CC(C)C)NC(=O)[C@H](CCCN)NC(=O)[C@H](Cc2ccc(O)cc2)NC(=O)[C@H](Cc2ccc(-c3ccccc3)cc2)NC(=O)[C@H](C(C)C)NC(=O)[C@H](Cc2c[nH]c3ccccc23)NC(=O)[C@H](CC(=O)O)NC(=O)[C@H](Cc2ccc(OCC(=O)O)cc2)NC(=O)[C@H](CCCNC(=N)N)NC(=O)CSC[C@@H](C(=O)N[C@@H](CCN)C(=O)NCCCCCCCCCCC(=O)O)NC1=O` [Compound 3391] ({CH2CO}-RY(Carboxymethyl)DWV[Bip]Y[Orn][dL][Dab][Cha]VK(Ac)C[Dab][Aun]-OH; thioether N-14) are within 1.5-fold of each other in IC50: 9 nM for the first, 8.8 nM for the second.

Compound `CC(C)C[C@H]1NC(=O)[C@H](CCCN)NC(=O)[C@H](Cc2ccc(O)cc2)NC(=O)[C@H](Cc2ccc(-c3ccccc3)cc2)NC(=O)[C@H](C(C)C)NC(=O)[C@H](Cc2c[nH]c3ccccc23)NC(=O)[C@H](CC(=O)O)NC(=O)[C@H](Cc2ccc(C(=O)O)cc2)NC(=O)[C@H](CC(N)=O)NC(=O)CSC[C@@H](C(=O)N[C@@H](CCN)C(=O)NCCCCCCCCCCC(=O)O)NC(=O)[C@H](CCC(=O)O)NC(=O)[C@H](C(C)C)NC(=O)[C@H](CC2CCCCC2)NC(=O)[C@H](CCN)NC1=O` [Compound 3392] ({CH2CO}-N[Phe(4-COOH)]DWV[Bip]Y[Orn][dL][Dab][Cha]VEC[Dab][Aun]-OH; thioether N-14) has an IC50 of 13.3 nM.
